The source of these data is patent publication US11236105B2, “Bicyclic compounds and methods of use” (BioTheryX, Inc., priority 2017, dated 2022).

The assay concerns TNF-α. The experiment in a line: Cell-Based TNFα Inhibition Assay (PBMCs induced with LPS, Meso Scale). The following applies: PBMC, PBMCs pretreated 1 hr, induced with LPS 100 ng/mL 18-24 hrs, supernatant TNF-α; for inhibition at 0.1 µM: 0.1 μM compound; for inhibition at 1 µM: 1 μM compound. On the procedure:
Cell-Based TNFα Inhibition Assay
PBMCs induced with LPS (lipopolysaccharide): Frozen […] blood mononuclear cells (PBMCs) are purchased from AllCells. Cells are quick thawed, washed once with Roswell Park Memorial Institute medium (RPMI)-1640/10% FBS/1% Penicillin/1% Streptomycin and plated in 96 well plates at 200,000 cells per well. Cells are pretreated with DMSO only or the indicated compounds for 1 hr and then induced with […] for 18-24 hrs. The supernatant is analyzed for TNF-α using Meso Scale assay according to manufacturer's protocol. The negative control wells are treated with DMSO. Compound activity is measured as a percentage of the DMSO control.

For orientation: inhibition means the percentage by which the read-out fell short of the control. With `CCOc1cc([C@@H](CS(C)(=O)=O)N2C(=O)c3csc(NC(=O)C(CC)CC)c3C2=O)ccc1OC` [Compound 6], the inhibition at 0.1 µM lay within 40 to 60% and the inhibition at 1 µM is more than 60%.

As to `CCOc1cc([C@@H](CS(C)(=O)=O)N2C(=O)c3scc(NC(=O)C4CC4)c3C2=O)ccc1OC` [Compound 11, (S)—N-(5-(1-(3-ethoxy-4-methoxyphenyl)-2-(methylsulfonyl)ethyl)-4,6-dioxo-5,6-dihydro-4H-thieno[2,3-c]pyrrol-3-yl)cyclopropanecarboxamide], the inhibition at 0.1 µM was less than 20% and the inhibition at 1 µM was in the range of 20 to 40%.

`CCOc1cc([C@@H](CS(C)(=O)=O)N2C(=O)c3csc(NC(=O)COC)c3C2=O)ccc1OC` [Compound 3, (S)—N-(5-(1-(3-ethoxy-4-methoxyphenyl)-2-(methylsulfonyl)ethyl)-4,6-dioxo-5,6-dihydro-4H-thieno[3,4-c]pyrrol-1-yl)-2-methoxyacetamide]: the inhibition at 0.1 µM is 40 to 60% and the inhibition at 1 µM was more than 60%.

As for `CC(=O)Nc1csc2c1C(=O)N([C@H](CS(C)(=O)=O)c1ccc3c(c1)OCO3)C2=O` [Compound 23, N-(5-(1-(benzo[d][1,3]dioxol-5-yl)-2-(methylsulfonyl)ethyl)-4,6-dioxo-5,6-dihydro-4H-thieno[2,3-c]pyrrol-3-yl)acetamide], the inhibition at 0.1 µM fell in the range of 20 to 40% and the inhibition at 1 µM lay within 40 to 60%.

With `CS(=O)(=O)C[C@H](c1ccc2c(c1)OCO2)N1C(=O)c2csc(NC(=O)C(F)(F)F)c2C1=O` [Compound 16, N-(5-(1-(benzo[d][1,3]dioxol-5-yl)-2-(methylsulfonyl)ethyl)-4,6-dioxo-5,6-dihydro-4H-thieno[3,4-c]pyrrol-1-yl)-2,2,2-trifluoro Acetamide], the inhibition at 0.1 µM is less than 20% and the inhibition at 1 µM was less than 20%.
